For 8 cell lines, relative viability results are on record in the supplement of paper PMC10307832.

What all share (assay): relative viability (nuclei count vs DMSO), 5 days (fraction); higher = more cells survive
Compound in test [1]: CCC1=CN=CN=C1N2CCN(CC2)CC3=NC4=C(N3)C=C(C=C4)C(F)(F)F + C[C@@H](Oc1cc(-c2cnn(C3CCNCC3)c2)cnc1N)c1c(Cl)ccc(F)c1Cl [Crizotinib] (partner 1 µM)
The method in brief: (§1)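 A single step with final 0.05% Triton X-100, 1% formaldehyde and 1 ug/ml Hoechst fixed the cells and stained nuclei 5 days after treatment. Lung cancer cell lines in 1536-well plates had been treated by pin tool the day after seeding with one drug alone or a fixed anchor-drug dose plus five library-drug doses (not always all listed) in √10 steps, and nuclei were counted on 4× images. Relative viability is the ratio of nuclei in treated wells to nuclei in vehicle wells, taken as the median of duplicate plates.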

Compound in test [2]: CCC1=CN=CN=C1N2CCN(CC2)CC3=NC4=C(N3)C=C(C=C4)C(F)(F)F + C[C@]1(O)C[C@@H](c2nc(-c3ccc4ccc(-c5ccccc5)nc4c3)c3c(N)nccn32)C1 [Linsitinib] (partner 1 µM)
The method, boiled down:
as §1

Compound in test [3]: CCC1=CN=CN=C1N2CCN(CC2)CC3=NC4=C(N3)C=C(C=C4)C(F)(F)F + Cc1nc(NC(=O)N2CCC[C@H]2C(N)=O)sc1-c1ccnc(C(C)(C)C(F)(F)F)c1 [Alpelisib] (partner 2 µM)
The method in brief: as §1

Compound in test [4]: CCC1=CN=CN=C1N2CCN(CC2)CC3=NC4=C(N3)C=C(C=C4)C(F)(F)F + O=C(c1cc(Cc2n[nH]c(=O)c3ccccc23)ccc1F)N1CCN(C(=O)C2CC2)CC1 [Olaparib] (partner 8 µM)
The method, boiled down: as §1

As for Calu-6, the relative viability in test [1] (first compound 0.04 µM) was 0.742; in test [1] (first compound 0.1265 µM) it was 0.707; in test [1] (first compound 0.4 µM), 0.832; in test [1] (first compound 1.265 µM), 0.905; in test [1] (first compound 4 µM), 0.982; in test [2] (first compound 0.04 µM), 0.883. Besides, the relative viability stood at 0.851 in test [2] (first compound 0.1265 µM); 0.871 in test [2] (first compound 0.4 µM); 0.819 in test [2] (first compound 1.265 µM); 1.02 in test [2] (first compound 4 µM); 0.891 in test [3] (first compound 0.04 µM); 0.923 in test [3] (first compound 0.1265 µM). Moreover, the relative viability was 0.86 in test [3] (first compound 0.4 µM); 0.822 in test [3] (first compound 1.265 µM); 0.86 in test [3] (first compound 4 µM); 0.681 in test [4] (first compound 0.04 µM); 0.591 in test [4] (first compound 0.1265 µM); 0.523 in test [4] (first compound 0.4 µM). Moreover, the relative viability in test [4] (first compound 1.265 µM) came out at 0.556; in test [4] (first compound 4 µM), 0.483.
As for ChaGo-K-1, the relative viability in test [1] (first compound 0.1265 µM) is 1.15; in test [1] (first compound 0.4 µM), 1.21; in test [1] (first compound 1.265 µM), 1.12; in test [1] (first compound 4 µM), 1.16; in test [4] (first compound 0.04 µM) it was 0.392; in test [4] (first compound 0.1265 µM), 0.39. For the same cell line, the relative viability was 0.457 in test [4] (first compound 0.4 µM), 0.431 in test [4] (first compound 1.265 µM) and 0.381 in test [4] (first compound 4 µM).
As for EBC-1, the relative viability in test [1] (first compound 0.04 µM) stood at 0.186; in test [1] (first compound 0.1265 µM) it was 0.169; in test [1] (first compound 0.4 µM), 0.218; in test [1] (first compound 1.265 µM) it was 0.196; in test [1] (first compound 4 µM), 0.169; in test [2] (first compound 0.04 µM) it was 0.996. For the same cell line, the relative viability in test [2] (first compound 0.1265 µM) was found to be 0.811; in test [2] (first compound 0.4 µM) it was 0.782; in test [2] (first compound 1.265 µM) it was 0.759; in test [2] (first compound 4 µM) it was 0.897; in test [3] (first compound 0.04 µM), 0.962; in test [3] (first compound 0.1265 µM), 0.769. In addition, the relative viability in test [3] (first compound 0.4 µM) turned out to be 0.796; in test [3] (first compound 1.265 µM) it was 0.697; in test [3] (first compound 4 µM), 1.03; in test [4] (first compound 0.04 µM) it was 0.691; in test [4] (first compound 0.1265 µM), 0.644; in test [4] (first compound 0.4 µM), 0.688. Moreover, the relative viability in test [4] (first compound 1.265 µM) turned out to be 0.675; in test [4] (first compound 4 µM), 0.699.
On to EKVX, for which the relative viability turned out to be 1.22 in test [1] (first compound 0.04 µM); 0.728 in test [1] (first compound 0.1265 µM); 0.915 in test [1] (first compound 0.4 µM); 0.873 in test [1] (first compound 1.265 µM); 1.07 in test [1] (first compound 4 µM); 1.01 in test [2] (first compound 0.04 µM). In addition, the relative viability in test [2] (first compound 0.1265 µM) stood at 0.897; in test [2] (first compound 0.4 µM), 0.954; in test [2] (first compound 1.265 µM) it was 0.769; in test [2] (first compound 4 µM), 0.905; in test [3] (first compound 0.04 µM), 0.875; in test [3] (first compound 0.1265 µM) it was 0.828. In addition, the relative viability stood at 0.762 in test [3] (first compound 0.4 µM); 0.699 in test [3] (first compound 1.265 µM); 0.866 in test [3] (first compound 4 µM); 0.877 in test [4] (first compound 0.04 µM); 0.734 in test [4] (first compound 0.1265 µM); 0.89 in test [4] (first compound 0.4 µM). The relative viability in test [4] (first compound 1.265 µM) was 0.684; in test [4] (first compound 4 µM), 0.862.
On to EMC-BAC-2, for which the relative viability in test [1] (first compound 0.04 µM) came out at 0.779; in test [1] (first compound 0.1265 µM), 0.734; in test [1] (first compound 0.4 µM), 0.77; in test [1] (first compound 1.265 µM), 0.889; in test [1] (first compound 4 µM), 1.03; in test [2] (first compound 0.04 µM), 0.816. Further, the relative viability in test [2] (first compound 0.1265 µM) amounted to 0.771; in test [2] (first compound 0.4 µM) it was 0.808; in test [2] (first compound 1.265 µM), 0.728; in test [2] (first compound 4 µM) it was 0.791; in test [3] (first compound 0.04 µM), 0.748; in test [3] (first compound 0.1265 µM), 0.697. The relative viability in test [3] (first compound 0.4 µM) stood at 0.726; in test [3] (first compound 1.265 µM), 0.723; in test [3] (first compound 4 µM), 0.774; in test [4] (first compound 0.04 µM), 0.505; in test [4] (first compound 0.1265 µM), 0.503; in test [4] (first compound 0.4 µM), 0.47. Also, the relative viability in test [4] (first compound 1.265 µM) is 0.447; in test [4] (first compound 4 µM), 0.479.
EPLC-272H: the relative viability turned out to be 0.81 in test [1] (first compound 0.04 µM); 0.867 in test [1] (first compound 0.1265 µM); 0.89 in test [1] (first compound 0.4 µM); 0.959 in test [1] (first compound 1.265 µM); 1.19 in test [1] (first compound 4 µM); 1.07 in test [2] (first compound 0.04 µM). Further, the relative viability in test [2] (first compound 0.1265 µM) came out at 0.96; in test [2] (first compound 0.4 µM) it was 1; in test [2] (first compound 1.265 µM), 1.43; in test [2] (first compound 4 µM), 1.33; in test [3] (first compound 0.04 µM), 0.795; in test [3] (first compound 0.1265 µM), 0.85. Moreover, the relative viability in test [3] (first compound 0.4 µM) amounted to 0.813; in test [3] (first compound 1.265 µM), 0.979; in test [3] (first compound 4 µM), 0.981; in test [4] (first compound 0.04 µM), 0.687; in test [4] (first compound 0.1265 µM), 0.693; in test [4] (first compound 0.4 µM), 0.835. The figures for the relative viability in test [4] (first compound 1.265 µM) and in test [4] (first compound 4 µM) were 0.617 and 0.695, respectively.
In the case of H3255, the relative viability was 0.864 in test [1] (first compound 0.04 µM); 0.888 in test [1] (first compound 0.1265 µM); 0.794 in test [1] (first compound 0.4 µM); 0.757 in test [1] (first compound 1.265 µM); 0.941 in test [1] (first compound 4 µM); 0.937 in test [2] (first compound 0.04 µM). Besides, the relative viability turned out to be 0.956 in test [2] (first compound 0.1265 µM); 0.904 in test [2] (first compound 0.4 µM); 0.825 in test [2] (first compound 1.265 µM); 0.772 in test [2] (first compound 4 µM); 0.742 in test [3] (first compound 0.04 µM); 0.721 in test [3] (first compound 0.1265 µM). Besides, the relative viability came out at 0.711 in test [3] (first compound 0.4 µM); 0.67 in test [3] (first compound 1.265 µM); 0.65 in test [3] (first compound 4 µM); 0.597 in test [4] (first compound 0.04 µM); 0.535 in test [4] (first compound 0.1265 µM); 0.556 in test [4] (first compound 0.4 µM). The relative viability in test [4] (first compound 1.265 µM) stood at 0.504; in test [4] (first compound 4 µM), 0.521.
Take HARA: the relative viability in test [1] (first compound 0.04 µM) was 1.06; in test [1] (first compound 0.1265 µM) it was 0.972; in test [1] (first compound 0.4 µM), 1.01; in test [1] (first compound 1.265 µM) it was 1.03; in test [1] (first compound 4 µM) it was 1.18; in test [2] (first compound 0.04 µM), 0.915. The relative viability in test [2] (first compound 0.1265 µM) was 0.832; in test [2] (first compound 0.4 µM), 0.919; in test [2] (first compound 1.265 µM), 0.733; in test [2] (first compound 4 µM), 0.831; in test [3] (first compound 0.04 µM), 0.858; in test [3] (first compound 0.1265 µM) it was 0.744. Further, the relative viability in test [3] (first compound 0.4 µM) was determined as 0.816; in test [3] (first compound 1.265 µM), 0.651; in test [3] (first compound 4 µM), 0.812; in test [4] (first compound 0.04 µM), 0.743; in test [4] (first compound 0.1265 µM), 0.923; in test [4] (first compound 0.4 µM), 0.763. In addition, the relative viability in test [4] (first compound 1.265 µM) amounted to 0.737; in test [4] (first compound 4 µM), 0.84.
